# From article PMC10447463, “Data-mining unveils structure–property–activity correlation of viral infectivity enhancing self-assembling peptides” (Nature Communications, 2023)
# Read-outs that look alike come from different tables or passages of the source.
# Assays:
# [1] = test system: HIV-1 infection of TZM-bl cells; experiment: HIV-1 infectivity enhancement assay, β-galactosidase luminescence; format: cell-based; conditions: for Rel-EFC / Log10 Infection Rel EFC: 1.3 µM peptide; for Rel-EFC: infection relative to EF-C (QCKIKQIINMWQ = 1); for Log10 Infection Rel EFC: log10 of infection relative to EF-C; for Log Infectivity: Log10 infection relative to EF-C, asymmetric std dev errors; for Log10 Infection Rel EF-C: HIV-1 infection of TZM-bl cells; for Log10 of Rel to EFC (Feb2021): Log10 of infection relative to EF-C; for Abs. Inf.: β-galactosidase luminescence
# [2] = format: physicochemical; conditions: for ThT Cat. / ThT-Fluorescence (categorical): ThT-active if fluorescence at least twice the control
# Method in brief: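 Preformed peptide fibrils (1 mg/mL) mixed with 50 µM ThT in PBS, 15 min at RT, fluorescence ex 440/em 488 nm versus PBS blank, triplicates. Zeta potential: peptides at 1 mg/mL in PBS pH 7.4, aged 1 d at RT, diluted in 1 mM KCl, Smoluchowski from electrophoretic mobility.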
# [3] = Conversion rate (CR) assay with fluorescamine; format: physicochemical; set-up: key to CR: % = 100−100×filtrate/original fluorescence intensity; conditions: conversion rate, fluorescamine assay; for CR / %: Fig. S7 panel B
# Method in brief: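 In the conversion assay, unconverted peptide passing a 3 kDa membrane at 4 °C was labelled with fluorescamine alongside unfiltered PNF, both in DMSO, and read at 365/470 nm after 20 min at room temperature. β-sheet content relied on ATR FT-IR of lyophilized fibril powder.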
# [4] = Fig. S7 panel A (plotted against β-sheet content), TZM-bl cells
# [5] = Fig. S7 panel B (plotted against CR), rounded to two decimals, TZM-bl cells
# [6] = Log10 of infection rate relative to EF-C, Figure 3A source data
# [7] = infection rate relative to EF-C, log10, data of Figure 2D
# [8] = infection rate relative to EF-C, log10, source data of Figure 2C
# [9] = ThT fluorescence category, 1 if Rel. ThT >2
Substance,Rel-EFC [1],Log10 Infection Rel EFC [1],"Log Infectivity [1, 4]","Log Infectivity [1, 5]","Log10 Infection Rel EF-C [1, 6]","Log10 Infection Rel EF-C [1, 7]","Log10 Infection Rel EF-C [1, 8]",Log10 of Rel to EFC (Feb2021) ([1]; all peptides of FigS16),Tht category (> 2 to blank = +) ([2]; Fig S10 panel D),ThT Cat. ([2]; Fig S10 panel E),"ThT Cat, ([2]; ThT category, 1 if Rel. ThT >2)",ThT Cat. / ThT-Fluorescence (categorical) [2],CR / % [3] [%],CR [3],Tht category (> 2 to blank = +) ([2]; FigS12 panel A),"ThT Cat, ([2]; FigS12 panel B)","ThT Cat. [2, 9]",other results
QCKIKIQINM,"0,4","-0,4",-0.4024,-0.4,-0.4,-0.4024,-0.4024,-0.4,"1 (ThT. Cat is 1, if Rel. ThT >2)","1 (ThT. Cat is 1, if Rel. ThT >2)","1 (ThT. Cat is 1, if Rel. ThT >2)","1 (ThT. Cat is 1, if Rel. ThT >2)",89.7,89.7,,,,"Abs. Inf. ([1]; absolute infection signal, HIV-1 on TZM-bl cells): 15250; Log10 Inf. rel. to EF-C ([1]; log10 of HIV-1 infection of TZM-bl cells relative to EF-C (EF-C = 0)): -0.4024; ThT Cat. ([2]; ThT category, 1 if Rel. ThT >2): 1 (ThT. Cat is 1, if Rel. ThT >2)"
CEIEIQINM,"0,07","-1,19",-1.186,-1.19,-1.19,-1.186,-1.186,,"1 (ThT. Cat is 1, if Rel. ThT >2)","1 (ThT. Cat is 1, if Rel. ThT >2)","1 (ThT. Cat is 1, if Rel. ThT >2)","1 (ThT. Cat is 1, if Rel. ThT >2)",43,43,"1 (ThT. Cat is 1, if Rel. ThT >2)","1 (ThT. Cat is 1, if Rel. ThT >2)","1 (ThT. Cat is 1, if Rel. ThT >2)",
KIKQII,0,"-2,31",-2.308,-2.31,-2.31,-2.308,-2.308,,0 (ThT-inactive (N-Fold <2)),0 (ThT-inactive (N-Fold <2)),0 (ThT-inactive (N-Fold <2)),0 (ThT-inactive (N-Fold <2)),13,12.97,0 (ThT-inactive (N-Fold <2)),0 (ThT-inactive (N-Fold <2)),0 (ThT-inactive (N-Fold <2)),
KIKIKIQI,"0,1","-1,01",-1.014,-1.01,-1.01,-1.014,-1.014,,"1 (ThT. Cat is 1, if Rel. ThT >2)","1 (ThT. Cat is 1, if Rel. ThT >2)","1 (ThT. Cat is 1, if Rel. ThT >2)","1 (ThT. Cat is 1, if Rel. ThT >2)",80,80,"1 (ThT. Cat is 1, if Rel. ThT >2)","1 (ThT. Cat is 1, if Rel. ThT >2)","1 (ThT. Cat is 1, if Rel. ThT >2)",
CKIKIQINM,"1,59","0,2",0.2012,0.2,0.2,0.2012,0.2012,0.2,"1 (ThT. Cat is 1, if Rel. ThT >2)","1 (ThT. Cat is 1, if Rel. ThT >2)","1 (ThT. Cat is 1, if Rel. ThT >2)","1 (ThT. Cat is 1, if Rel. ThT >2)",75.5,75.5,,,"1 (ThT. Cat is 1, if Rel. ThT >2)",
RGDKIKIQINM,"0,41","-0,38",-0.3838,-0.38,-0.38,-0.3838,-0.3838,-0.38,"1 (ThT. Cat is 1, if Rel. ThT >2)","1 (ThT. Cat is 1, if Rel. ThT >2)","1 (ThT. Cat is 1, if Rel. ThT >2)","1 (ThT. Cat is 1, if Rel. ThT >2)",60.9,60.92,,,"1 (ThT. Cat is 1, if Rel. ThT >2)",
CKFKFQFW,"0,88","-0,06",-0.05512,-0.06,-0.06,-0.05512,-0.05512,-0.06,0 (ThT-inactive (N-Fold <2)),0 (ThT-inactive (N-Fold <2)),0 (ThT-inactive (N-Fold <2)),0 (ThT-inactive (N-Fold <2)),98.7,98.71,,,,"Abs. Inf. ([1]; absolute HIV-1 infection signal, TZM-bl cells): 17862.22222; ThT Cat. ([2]; ThT category, 1 if Rel. ThT >2): 0 (ThT-inactive (N-Fold <2))"
RGDKIKIQIC,"0,83","-0,08",-0.07993,-0.08,-0.08,-0.07993,-0.07993,-0.08,"1 (ThT. Cat is 1, if Rel. ThT >2)","1 (ThT. Cat is 1, if Rel. ThT >2)","1 (ThT. Cat is 1, if Rel. ThT >2)","1 (ThT. Cat is 1, if Rel. ThT >2)",80,80,,,"1 (ThT. Cat is 1, if Rel. ThT >2)",
KIKIKIKIWW,"0,37","-0,43",-0.4266,-0.43,-0.43,-0.4266,-0.4266,-0.43,"1 (ThT. Cat is 1, if Rel. ThT >2)","1 (ThT. Cat is 1, if Rel. ThT >2)","1 (ThT. Cat is 1, if Rel. ThT >2)","1 (ThT. Cat is 1, if Rel. ThT >2)",92,92,,,"1 (ThT. Cat is 1, if Rel. ThT >2)","Log10 of Rel to EFC (Feb2021) ([1]; second listing, peptides with TEM 2cat 0): -0.43"
